Measured values taken from paper PMC9721025, “Pharmacokinetic study of the main components of Tanreqing capsules and Tanreqing injections in beagles by liquid chromatography–tandem mass spectrometry” (Chinese Medicine, 2022).
Read-outs that look alike come from different tables or passages of the source.

Key:
[1] = Pharmacokinetics in beagles, single-dose regimen of TRQI (i.v.) or TRQC (oral), plasma LC-MS/MS; assay type: in vivo, beagle; settings: for AUC(0-t) / Cmax / Tmax / half-life: beagle, dog, plasma; for AUC(0-t): read-out: AUC0–24 h; for Cmax / Tmax / half-life: mean of six beagles
Description: (§1) 100 μL plasma sample was drawn and transferred to 1.5 mL centrifuge tube prior to 300 μL protein precipitant (3:1 [v/v] methanol/acetonitrile, containing 0.1% formic acid and 100 ng/mL IS) was added, and then the sample was vortex-mixed for 3 min. The mixture was centrifuged at 20,000 ×g for 10 min, and 100 μL supernatant was transferred to the injection vial and analyzed directly by LC–MS/MS.
(§2) This study was carried out in six beagles (three males and three females, 9.0–12.0 kg each), that were purchased from Junda Pet Hospital (Shanghai, China). This experimental protocol was approved by the Experimental Animal Ethics Committee of the Naval Military Medical University (Shanghai, China).
The six healthy beagles were divided into two groups: beagles 1–3 were all male and were assigned to the first group, and beagles 4–6 were all females and assigned to the second group. The two-cycle, crossover study was designed with a 7-day wash out period. For the single-administration process, the dogs in the first group were injected intravenously with 0.5 mL/kg TRQI (one-third of the normal daily dose), and blood samples were collected at 0, 5, 10, 15, 20, 30, and 45 min and then at 1, 2, 4, 6, 8, 12, and 24 h (a total of 14 time points) after injection. For each blood sample, 1 mL of blood was collected from the forelimb vein in heparin-treated tubes. The dogs in the second group were orally administrated 0.09 g/kg TRQC (one-third of the normal daily dose, and blood samples were collected in the same manner at 0, 10, 20, and 40 min and then at 1, 1.5, 2, 2.5, 3, 4, 6, 8, 12, and 24 h (a total of 14 time points). All blood samples were centrifuged at 4000 × g for 5 min, and each supernatant was collected and aliquoted. After a 7-day wash out period, the dogs in each group were administrated the other Tanreqing formulation in a crossover design, and blood samples were collected and processed in the same way.
(§3) All data obtained were analyzed using Drug and Statistics (DAS) 2.0 software (Chinese Society of Pharmacology), and a non-compartment analysis was used to calculate plasma pharmacokinetic parameters. The principal components of TRQI and TRQC were compared with an analysis of variance (ANOVA) and/or a two-tailed student-t test.

[2] = Pharmacokinetics in beagles, multiple-dose regimen (once per day for 7 days) of TRQI or TRQC, plasma LC-MS/MS; assay type: in vivo; settings: beagle, dog
Description: as §1, §2
After the end of the single-dose experiment, the dogs in group one were given 0.5 mL/kg injection of TRQI once per day for 7 days following the wash out period, and the dogs in group two were given 0.09 g/kg TRQC once per day for 7 days. After the seventh administration, blood samples were collected at 0, 10, 20, and 40 min and then at 1, 1.5, 2, 2.5, 3, 4, 6, 8, 12, and 24 h (a total of 14 time points) and were processed as described in “Single-dose regimen” section. The resulting plasma samples were used to determine the steady-state plasma concentration of TRQI and TRQC. A crossover study was again carried out in both groups, as described in “Single-dose regimen” section, after a 7-day washing period.
as §3

[3] = Stability of analytes in dog plasma (QC samples); assay type: in vitro ADME
Description: The stock solutions of all analytes were further mixed and diluted with methanol/water (10:90, v/v) solution to prepare the working solutions. […] The QC samples were stored in a refrigerator at – 80 °C until retrieval (see Additional file 1). The stability, which includes short-term stability (6 h at room temperature), long-term stability (− 80 °C for 30 days in the refrigerator), and freeze–thaw stability (three cycles from − 80 °C to room temperature), were assessed using QC samples at three concentration levels in three replicates. […] Similarly, there were no obvious effects on the analysis results of the samples with respect to short-term stability or long-term storage.

[4] = Tanreqing injection, cited from earlier work
[5] = both sexes, iv, single i.v. dose of TRQI 0.5 mL/kg
[6] = both sexes, single oral dose of TRQC 0.09 g/kg
[7] = both sexes, iv, TRQI 0.5 mL/kg once per day for 7 days, mean
[8] = both sexes, po, TRQC 0.09 g/kg once per day for 7 days, mean
[9] = n = 3, high QC: nominal 200 ng/mL baicalin, 1000 ursodeoxycholic acid, 100 chenodeoxycholic acid and chlorogenic acid
[10] = n = 3, low QC: nominal 4 ng/mL baicalin, 20 ursodeoxycholic acid, 2 chenodeoxycholic acid and chlorogenic acid
[11] = n = 3, middle QC: nominal 20 ng/mL baicalin, 100 ursodeoxycholic acid, 10 chenodeoxycholic acid and chlorogenic acid

## C[C@H](CCC(=O)O)[C@H]1CC[C@H]2[C@@H]3[C@H](O)C[C@@H]4C[C@H](O)CC[C@]4(C)[C@H]3CC[C@]12C [Chenodeoxycholic acid, chenodeoxycholic acid]
[1]; TRQC, oral, dogs
  time at which oral absorption reached a peak: ~5 h
[1]; both sexes, iv, 0.5 mL/kg, single TRQI 0.5 mL/kg, Mean
  AUC(0-t): 359 ng·h/mL
[1]; [5]
  Cmax: 120 ng/mL
  Tmax: 1.07 h
  half-life: 5.67 h
[1]; both sexes, po, 0.09 g/kg, single TRQCs 0.09 g/kg, Mean
  AUC(0-t): 553 ng·h/mL
[1]; [6]
  Cmax: 99.8 ng/mL
  Tmax: 7.53 h
  half-life: 5.93 h
[1]; female, iv, 0.5 mL/kg, single TRQI 0.5 mL/kg, beagle No 4
  AUC(0-t): 89 ng·h/mL
[1]; female, iv, 0.5 mL/kg, single TRQI 0.5 mL/kg, beagle No 5
  AUC(0-t): 137 ng·h/mL
[1]; female, iv, 0.5 mL/kg, single TRQI 0.5 mL/kg, beagle No 6
  AUC(0-t): 95 ng·h/mL
[1]; female, po, 0.09 g/kg, single TRQCs 0.09 g/kg, beagle No 4
  AUC(0-t): 1330 ng·h/mL
[1]; female, po, 0.09 g/kg, single TRQCs 0.09 g/kg, beagle No 5
  AUC(0-t): 126 ng·h/mL
[1]; female, po, 0.09 g/kg, single TRQCs 0.09 g/kg, beagle No 6
  AUC(0-t): 1080 ng·h/mL
[1]; male, iv, 0.5 mL/kg, single TRQI 0.5 mL/kg, beagle No 1
  AUC(0-t): 1490 ng·h/mL
[1]; male, iv, 0.5 mL/kg, single TRQI 0.5 mL/kg, beagle No 2
  AUC(0-t): 108 ng·h/mL
[1]; male, iv, 0.5 mL/kg, single TRQI 0.5 mL/kg, beagle No 3
  AUC(0-t): 238 ng·h/mL
[1]; male, po, 0.09 g/kg, single TRQCs 0.09 g/kg, beagle No 1
  AUC(0-t): 104 ng·h/mL
[1]; male, po, 0.09 g/kg, single TRQCs 0.09 g/kg, beagle No 2
  AUC(0-t): 257 ng·h/mL
[1]; male, po, 0.09 g/kg, single TRQCs 0.09 g/kg, beagle No 3
  AUC(0-t): 421 ng·h/mL
[2]; both sexes, iv, 0.5 mL/kg, TRQI 0.5 mL/kg for 7 days, Mean
  AUC(0-inf): 5030 ng·h/mL
[2]; both sexes, iv, 0.5 mL/kg, TRQI 0.5 mL/kg for 7 days, Mean, read-out: AUC0–24 h
  AUC(0-t): 4070 ng·h/mL
[2]; [7]
  Cmax at 7 days: 968 ng/mL
  half-life at 7 days: 6.25 h
[2]; both sexes, po, 0.09 g/kg, TRQC 0.09 g/kg for 7 days, Mean
  AUC(0-inf): 3710 ng·h/mL
[2]; both sexes, po, 0.09 g/kg, TRQC 0.09 g/kg for 7 days, Mean, read-out: AUC0–24 h
  AUC(0-t): 3430 ng·h/mL
[2]; [8]
  Cmax at 7 days: 521 ng/mL
  Tmax at 7 days: 4.72 h
  half-life at 7 days: 13.7 h
[2]; female, iv, 0.5 mL/kg, TRQI 0.5 mL/kg for 7 days, beagle No. 4
  AUC(0-inf): 6190 ng·h/mL
[2]; female, iv, 0.5 mL/kg, TRQI 0.5 mL/kg for 7 days, beagle No. 4, read-out: AUC0–24 h
  AUC(0-t): 669 ng·h/mL
[2]; female, iv, 0.5 mL/kg, TRQI 0.5 mL/kg for 7 days, beagle No. 5
  AUC(0-inf): 399 ng·h/mL
[2]; female, iv, 0.5 mL/kg, TRQI 0.5 mL/kg for 7 days, beagle No. 5, read-out: AUC0–24 h
  AUC(0-t): 234 ng·h/mL
[2]; female, iv, 0.5 mL/kg, TRQI 0.5 mL/kg for 7 days, beagle No. 6
  AUC(0-inf): 138 ng·h/mL
[2]; female, iv, 0.5 mL/kg, TRQI 0.5 mL/kg for 7 days, beagle No. 6, read-out: AUC0–24 h
  AUC(0-t): 138 ng·h/mL
[2]; female, po, 0.09 g/kg, TRQC 0.09 g/kg for 7 days, beagle No. 4
  AUC(0-inf): 16800 ng·h/mL
[2]; female, po, 0.09 g/kg, TRQC 0.09 g/kg for 7 days, beagle No. 4, read-out: AUC0–24 h
  AUC(0-t): 16700 ng·h/mL
[2]; female, po, 0.09 g/kg, TRQC 0.09 g/kg for 7 days, beagle No. 5
  AUC(0-inf): 1960 ng·h/mL
[2]; female, po, 0.09 g/kg, TRQC 0.09 g/kg for 7 days, beagle No. 5, read-out: AUC0–24 h
  AUC(0-t): 500 ng·h/mL
[2]; female, po, 0.09 g/kg, TRQC 0.09 g/kg for 7 days, beagle No. 6
  AUC(0-inf): 761 ng·h/mL
[2]; female, po, 0.09 g/kg, TRQC 0.09 g/kg for 7 days, beagle No. 6, read-out: AUC0–24 h
  AUC(0-t): 760 ng·h/mL
[2]; male, iv, 0.5 mL/kg, TRQI 0.5 mL/kg for 7 days, beagle No. 1
  AUC(0-inf): 20000 ng·h/mL
[2]; male, iv, 0.5 mL/kg, TRQI 0.5 mL/kg for 7 days, beagle No. 1, read-out: AUC0–24 h
  AUC(0-t): 20000 ng·h/mL
[2]; male, iv, 0.5 mL/kg, TRQI 0.5 mL/kg for 7 days, beagle No. 2
  AUC(0-inf): 183 ng·h/mL
[2]; male, iv, 0.5 mL/kg, TRQI 0.5 mL/kg for 7 days, beagle No. 2, read-out: AUC0–24 h
  AUC(0-t): 121 ng·h/mL
[2]; male, iv, 0.5 mL/kg, TRQI 0.5 mL/kg for 7 days, beagle No. 3
  AUC(0-inf): 3250 ng·h/mL
[2]; male, iv, 0.5 mL/kg, TRQI 0.5 mL/kg for 7 days, beagle No. 3, read-out: AUC0–24 h
  AUC(0-t): 3240 ng·h/mL
[2]; male, po, 0.09 g/kg, TRQC 0.09 g/kg for 7 days, beagle No. 1
  AUC(0-inf): 231 ng·h/mL
[2]; male, po, 0.09 g/kg, TRQC 0.09 g/kg for 7 days, beagle No. 1, read-out: AUC0–24 h
  AUC(0-t): 195 ng·h/mL
[2]; male, po, 0.09 g/kg, TRQC 0.09 g/kg for 7 days, beagle No. 2
  AUC(0-inf): 1930 ng·h/mL
[2]; male, po, 0.09 g/kg, TRQC 0.09 g/kg for 7 days, beagle No. 2, read-out: AUC0–24 h
  AUC(0-t): 1900 ng·h/mL
[2]; male, po, 0.09 g/kg, TRQC 0.09 g/kg for 7 days, beagle No. 3
  AUC(0-inf): 538 ng·h/mL
[2]; male, po, 0.09 g/kg, TRQC 0.09 g/kg for 7 days, beagle No. 3, read-out: AUC0–24 h
  AUC(0-t): 493 ng·h/mL
[3]; [9]
  Freeze-thaw stability (3 cycles) Mean ± S.D. concentration: 95.70 ± 4.66 ng/mL
  Long-term stability (30 days at – 80 °C) Mean ± S.D. concentration: 101.23 ± 5.13 ng/mL
  Short-term stability (6 h at room temperature) Mean ± S.D concentration: 101.57 ± 0.54 ng/mL
[3]; [10]
  Freeze-thaw stability (3 cycles) Mean ± S.D. concentration: 1.97 ± 0.17 ng/mL
  Long-term stability (30 days at – 80 °C) Mean ± S.D. concentration: 1.92 ± 0.22 ng/mL
  Short-term stability (6 h at room temperature) Mean ± S.D concentration: 1.77 ± 0.06 ng/mL
[3]; [11]
  Freeze-thaw stability (3 cycles) Mean ± S.D. concentration: 9.37 ± 0.95 ng/mL
  Long-term stability (30 days at – 80 °C) Mean ± S.D. concentration: 10.10 ± 0.36 ng/mL
  Short-term stability (6 h at room temperature) Mean ± S.D concentration: 9.79 ± 0.78 ng/mL
[4]; Hu's study
  t1/2: 1.83 h
[4]; another study
  t1/2: 0.55 h
